Measurements reported in BigSolDB 2.1.

CO/N=C(\C(=O)O)c1csc(N)n1
Details	solubility (mole fraction)
in ethanol, 283.12 K	6.9e-05
in ethanol, 288.42 K	8.31e-05
in ethanol, 293.23 K	0.000101
in ethanol, 298.17 K	0.000124
in ethanol, 303.33 K	0.000151
in ethylene glycol, 283.11 K	0.00129
in ethylene glycol, 288.68 K	0.00152
in ethylene glycol, 293.41 K	0.00175
in ethylene glycol, 298.26 K	0.002
in ethylene glycol, 303.46 K	0.0023
in methanol, 283.75 K	0.000293
in methanol, 288.17 K	0.000334
in methanol, 293.36 K	0.00038
in methanol, 298.26 K	0.00043
in methanol, 303.1 K	0.000489
in n-propanol, 282.85 K	2.14e-05
in n-propanol, 288.05 K	2.49e-05
in n-propanol, 293.09 K	3.1e-05
in n-propanol, 298.3 K	4.25e-05
in n-propanol, 303.08 K	5.94e-05
in water, 283.67 K	0.000356
in water, 288.48 K	0.000416
in water, 293.22 K	0.000483
in water, 298.36 K	0.000557
in water, 303.22 K	0.000637
